Results taken from article PMC5112578, “Zika antiviral chemotherapy: identification of drugs and promising starting points for drug discovery from an FDA-approved library” (F1000Research, 2016).
Structures can show the parent of a compound that is named as a salt. Where two headings read alike, the source gives them in different places. Numbered stars: 1 amine (or outer) side, 2 acyl side, 3 side chain; on linkers, the order of the positions; unused ones are H or OH. Bridge positions count the residues as written; N and C are the ends. Square brackets hold non-standard residues; d marks the D form. Peptide text beside a SMILES is read from it. I, II: the chains in the order shown. Actinocin(9to1) = Cc1c2oc3c(C)ccc(C(=O)[*:1])c3nc-2c(C(=O)[*:2])c(N)c1=O; NMeV = CN[C@H](C(=O)O)C(C)C; Sar = CNCC(=O)O

What was measured:
[1] = Table 2; no reference given; cited from earlier work
Zika virus (ZIKV) [2] = test: ZIKV high content screening assay (infection ratio by immunofluorescence in Huh7); conditions: for Max. Activity (% of infection inhibition) / S.I. (CC 50/EC 50): Table 2; for Max. Activity (% of infection inhibition): dose-response; for Max. Activity (% of infection inhibition) / activity: Huh7, ZIKV, 72 h; for activity: in our assay, library screened at 20 µM; for S.I. (CC 50/EC 50): SI = CC50/EC50, Huh7; for SI: SI = CC50/EC50
Zika virus (ZIKV) [3] = test system: Zika virus (ZIKV)
Huh7 cells = test: Cell toxicity / cell ratio in the ZIKV high content assay; conditions: for toxicity: in our assay, library screened at 20 µM, Huh7, 72 h; for CC50: Table S2, 50% reduction in cell viability vs infected IFNα2A treated cells, 72 h
[4] = in humans; no reference given; cited from earlier work
[5] = Table S2, 9 point DRC from 50 µM, Huh7, ZIKV MOI 0.5, 72 h

| Structure (SMILES) | CC50 (Huh7 cells) [µM] | EC50 (Zika virus (ZIKV) [2]; [5]) [µM] | SI (Zika virus (ZIKV) [2]; Table S2) | also measured |
| --- | --- | --- | --- | --- |
| O=c1[nH]cc(F)c(=O)[nH]1 [5-Fluorouracil] |  |  |  | Water Solubility [1]: 12.5 mg/mL; Max. Activity (% of infection inhibition) (Zika virus (ZIKV) [2]): 57%; EC50 (Zika virus (ZIKV) [2]; Zika virus, Huh-7, 72 h): 14.3 ± 8.6 µM; S.I. (CC 50/EC 50) (Zika virus (ZIKV) [3]): > 2.5 |
| O=c1cnn([C@@H]2O[C@H](CO)[C@@H](O)[C@H]2O)c(=O)[nH]1 [6-Azauridine] |  |  |  | Water Solubility (mg/mL) [1]: Very high; Max. Activity (% of infection inhibition) (Zika virus (ZIKV) [2]): 88.3%; EC50 (Zika virus (ZIKV) [2]; Zika virus, Huh-7, 72 h): 2.3 ± 0.1 µM |
| Cn1cnc([N+](=O)[O-])c1Sc1ncnc2nc[nH]c12 [Azathioprine] |  |  |  | toxicity (Huh7 cells): higher than 50% |
| CC(C)/N=c1\cc2n(-c3ccc(Cl)cc3)c3ccccc3nc-2cc1Nc1ccc(Cl)cc1 [Clofazimine] |  |  |  | activity (Zika virus (ZIKV) [2]): lower than 50% |
| Cc1c2oc3c(C)ccc(C(=O)N[C@@H]4C(=O)N[C@H](C(C)C)C(=O)N5CCC[C@H]5C(=O)N(C)CC(=O)N(C)[C@@H](C(C)C)C(=O)O[C@@H]4C)c3nc-2c(C(=O)N[C@@H]2C(=O)N[C@H](C(C)C)C(=O)N3CCC[C@H]3C(=O)N(C)CC(=O)N(C)[C@@H](C(C)C)C(=O)O[C@@H]2C)c(N)c1=O [Dactinomycin] (I: T[dV]P[Sar][NMeV] / II: T[dV]P[Sar][NMeV]; ester I:1-I:C, II:1-II:C; linker I:N-II:N via Actinocin(9to1)) |  |  |  | toxicity (Huh7 cells): higher than 50% |
| C[C@H]1O[C@@H](O[C@H]2[C@@H](O)C[C@H](O[C@H]3[C@@H](O)C[C@H](O[C@H]4CC[C@@]5(C)[C@H](CC[C@@H]6[C@@H]5C[C@@H](O)[C@]5(C)[C@@H](C7=CC(=O)OC7)CC[C@]65O)C4)O[C@@H]3C)O[C@@H]2C)C[C@H](O)[C@@H]1O [Digoxin] |  |  |  | toxicity (Huh7 cells): higher than 50% |
| CO[C@@H]1[C@@H](O[C@@H]2O[C@H](C)[C@@H](O[C@H]3C[C@@](C)(O)[C@@H](OC(=O)CC(C)C)[C@H](C)O3)[C@H](N(C)C)[C@H]2O)[C@@H](CC=O)C[C@@H](C)[C@@H](O)/C=C/C=C/C[C@@H](C)OC(=O)C[C@H]1O [Kitasamycin] |  |  |  | Water Solubility [1]: 0.05 mg/mL; S.I. (CC 50/EC 50) (Zika virus (ZIKV) [2]): > 1.2; Max. Activity (% of infection inhibition) (Zika virus (ZIKV) [2]): 69.1%; EC50 (Zika virus (ZIKV) [2]; Zika virus, Huh-7, 72 h): 41.7 ± 10.1 µM |
| CC[C@H](C)C(=O)O[C@H]1C[C@@H](C)C=C2C=C[C@H](C)[C@H](CC[C@@H]3C[C@@H](O)CC(=O)O3)[C@H]21 [Lovastatin] |  |  |  | S.I. (CC 50/EC 50) (Zika virus (ZIKV) [2]): > 2.5; Max. Activity (% of infection inhibition) (Zika virus (ZIKV) [2]): 60.7%; EC50 (Zika virus (ZIKV) [2]; Zika virus, Huh-7, 72 h): 20.7 ± 8.6 µM |
| COC(=O)Nc1nc2ccc(C(=O)c3ccccc3)cc2[nH]1 [Mebendazole] |  |  |  | toxicity (Huh7 cells): higher than 50% |
| OC(c1cc(C(F)(F)F)nc2c(C(F)(F)F)cccc12)C1CCCCN1 (centres unmarked) [Mefloquine] |  |  |  | toxicity (Huh7 cells): higher than 50% |
| S=c1[nH]cnc2nc[nH]c12 [Mercaptopurine] |  |  |  | activity (Zika virus (ZIKV) [2]): lower than 50% |
| COc1c2occc2cc2ccc(=O)oc12 [Methoxsalen] |  |  |  | activity (Zika virus (ZIKV) [2]): lower than 50% |
| O=C1c2cccc3c2[C@H](CCC3)CN1[C@@H]1CN2CCC1CC2 [Palonosetron] |  |  |  | bioavailability [4]: 97%; Water Solubility (mg/mL) [1]: Very high; Max. Activity (% of infection inhibition) (Zika virus (ZIKV) [2]): 97.7%; EC50 (Zika virus (ZIKV) [2]; Zika virus, Huh-7, 72 h): 16.3 ± 7.7 µM; S.I. (CC 50/EC 50) (Zika virus (ZIKV) [3]): > 3.06 |
| Clc1ccc2c(c1)CCc1cccnc1C2=C1CCNCC1 [SAM001246545] | 20.7 ± 4.1 |  |  |  |
| Cc1ccc(NC(=O)c2ccc(CN3CCN(C)CC3)cc2)cc1Nc1nccc(-c2cccnc2)n1 [SAM001246622] |  | 13.3 ± 5.8 |  |  |
| COCCCC/C(=N\OCCN)c1ccc(C(F)(F)F)cc1.O=C(O)/C=C\C(=O)O [SAM001246977] | 24.3 ± 3.1 | 17 ± 3.6 | 1.43 |  |
| CN1CCN(CCCN2c3ccccc3Sc3ccc(Cl)cc32)CC1.O=C(O)/C=C\C(=O)O.O=C(O)/C=C\C(=O)O [SAM001247054] | 9 ± 4.4 | 10.3 ± 3.1 | 0.87 |  |
| Clc1ccccc1C(c1ccccc1)(c1ccccc1)n1ccnc1 [SAM001247056] | 8.7 ± 1.2 | 14.3 ± 3.5 | 0.6 |  |
| CC(C)c1ccc2c(c1)c(SC(C)(C)C)c(CC(C)(C)C(=O)O)n2Cc1ccc(Cl)cc1 [SAM001247075] | 33.7 ± 10.8 | 12 ± 1.7 | 2.8 |  |
| Oc1cc2c(cc1O)[C@H]1c3ccccc3CN[C@@H]1CC2 [SAM001247083] | 16.5 | 21.5 ± 0.7 |  |  |
| N=C(NCc1ccc(Cl)cc1)SCCCc1c[nH]cn1 [SAM001247107] | 19.3 ± 9.7 | 14 | 1.38 |  |
| CC(CN1c2ccccc2Sc2ccccc21)N(C)C.Cl (centres unmarked) [SAM002264636] | 28.3 ± 17.6 | 19.7 ± 4.5 | 1.44 |  |
| CN1C2CCC1CC(OC(c1ccccc1)c1ccccc1)C2.CS(=O)(=O)O (centres unmarked) [SAM002548938] | 31.3 ± 15.3 | 21.3 ± 10 | 1.47 |  |
| Clc1ccc2c(c1)C(N1CCNCC1)=Nc1ccccc1O2 [SAM002564189] | 11.7 ± 11 | 19.3 ± 5.5 | 0.6 |  |
| CN[C@H]1CC[C@@H](c2ccc(Cl)c(Cl)c2)c2ccccc21 [Sertraline-HCl] |  |  |  | activity (Zika virus (ZIKV) [2]): lower than 50% |
